*1 amine or outer side, *2 acyl side, *3 side chain or, on linkers, in order; H or OH if unused. Where a SMILES comes first, the peptide text is derived from it. Bridges are numbered along the chain shown (N, C = ends). [ ]: non-standard residue; d: D form. Cys(O)(CH2CO) = O=C([C@H](C[S+]([O-])CC(=O)[*:3])N[*:1])[*:2]; Aad = N[C@@H](CCCC(=O)O)C(=O)O; Pen = CC(C)(S)[C@H](N)C(=O)O; dOrn = NCCC[C@@H](N)C(=O)O
Molecular target: human platelet rich plasma (PRP) (Homo sapiens, UniProt P05106+P08514)
Assay: In Vitro Human Platelet Aggregation Assay
Assay type: cell-based
Details: human PRP; read-out: Human Platelet Aggregation IC50
Experimental: Platelet aggregation assays are performed in human platelet rich plasma (PRP). Fifty milliliters of whole human blood (9 parts) is drawn on 3.6% sodium citrate (1 part) from a donor who has not taken aspirin or related medications for at least two weeks. The blood is centrifuged at 160×g for 10 minutes at 22° C. and allowed to stand for 5 minutes after which the PRP is decanted. Platelet poor plasma (PPP) is isolated from the remaining blood after centrifugation at 2000×g for 25 minutes. The platelet count of the PRP is diluted to about 300,000 platelets per microliter with PPP.
A 225 μl aliquot of PRP plus 25 μl of either a dilution of the test inhibitor sample or a control (PBS) is incubated for 5 minutes in a Chrono-log Whole Blood Aggregometer at 25° C. An aggregating agent (collagen, 1 μg/ml; U46619, 100 ng/ml; or ADP, 17 μM) is added and the transmission is recorded.

Chain of human platelet rich plasma (PRP) (P08514 32-1039): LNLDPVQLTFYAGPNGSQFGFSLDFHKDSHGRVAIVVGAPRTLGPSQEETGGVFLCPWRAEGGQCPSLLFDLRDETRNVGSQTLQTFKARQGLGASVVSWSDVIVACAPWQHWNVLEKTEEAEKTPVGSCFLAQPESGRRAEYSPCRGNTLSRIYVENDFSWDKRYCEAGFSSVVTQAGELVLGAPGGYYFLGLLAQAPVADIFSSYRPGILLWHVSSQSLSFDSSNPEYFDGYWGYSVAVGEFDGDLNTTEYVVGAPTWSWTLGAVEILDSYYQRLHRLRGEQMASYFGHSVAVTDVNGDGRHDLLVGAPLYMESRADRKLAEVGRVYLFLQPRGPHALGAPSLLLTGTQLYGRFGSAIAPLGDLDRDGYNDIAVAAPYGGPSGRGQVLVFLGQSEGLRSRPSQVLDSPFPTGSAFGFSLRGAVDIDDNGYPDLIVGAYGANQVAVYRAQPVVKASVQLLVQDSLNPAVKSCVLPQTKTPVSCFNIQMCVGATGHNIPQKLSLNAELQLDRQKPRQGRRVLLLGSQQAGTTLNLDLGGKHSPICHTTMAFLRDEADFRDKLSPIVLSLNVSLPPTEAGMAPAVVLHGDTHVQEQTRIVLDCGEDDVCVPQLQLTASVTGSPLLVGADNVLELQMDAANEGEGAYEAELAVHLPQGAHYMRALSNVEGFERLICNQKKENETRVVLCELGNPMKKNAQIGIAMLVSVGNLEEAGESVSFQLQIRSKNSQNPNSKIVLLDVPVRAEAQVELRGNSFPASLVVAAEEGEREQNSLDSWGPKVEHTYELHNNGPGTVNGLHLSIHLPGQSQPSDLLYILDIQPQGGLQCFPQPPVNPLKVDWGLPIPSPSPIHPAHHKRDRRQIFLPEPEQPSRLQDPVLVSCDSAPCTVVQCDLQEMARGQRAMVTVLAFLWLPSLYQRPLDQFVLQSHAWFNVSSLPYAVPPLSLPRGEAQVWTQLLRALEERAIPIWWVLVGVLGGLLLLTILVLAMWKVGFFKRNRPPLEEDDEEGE
Chain of human platelet rich plasma (PRP) (P05106 27-788): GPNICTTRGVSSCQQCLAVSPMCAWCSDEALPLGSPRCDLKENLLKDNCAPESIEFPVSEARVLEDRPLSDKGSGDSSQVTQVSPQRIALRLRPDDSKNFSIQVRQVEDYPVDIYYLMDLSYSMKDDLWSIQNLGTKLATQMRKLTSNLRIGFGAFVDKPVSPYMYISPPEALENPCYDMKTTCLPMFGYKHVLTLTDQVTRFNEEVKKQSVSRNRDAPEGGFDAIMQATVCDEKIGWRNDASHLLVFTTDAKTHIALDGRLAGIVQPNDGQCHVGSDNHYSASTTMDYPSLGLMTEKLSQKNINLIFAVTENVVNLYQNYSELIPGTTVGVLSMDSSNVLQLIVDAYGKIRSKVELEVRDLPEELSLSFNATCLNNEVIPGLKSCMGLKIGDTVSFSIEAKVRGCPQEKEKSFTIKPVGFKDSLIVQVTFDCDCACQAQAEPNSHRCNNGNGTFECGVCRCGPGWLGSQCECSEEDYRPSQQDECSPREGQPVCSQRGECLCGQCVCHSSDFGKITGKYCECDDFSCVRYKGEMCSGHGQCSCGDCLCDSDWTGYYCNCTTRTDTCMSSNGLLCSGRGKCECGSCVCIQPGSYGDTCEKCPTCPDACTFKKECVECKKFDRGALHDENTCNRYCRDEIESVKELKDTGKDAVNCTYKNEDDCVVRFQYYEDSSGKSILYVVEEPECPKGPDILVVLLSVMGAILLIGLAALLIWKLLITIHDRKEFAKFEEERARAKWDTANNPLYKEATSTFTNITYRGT

**Q.** For N=C(N)NCCC[C@@H]1NC(=O)[C@@H](Cc2ccc(O)cc2)NC(=O)CSC[C@@H](C(=O)N[C@@H](CCCCN)C(=O)O)NC(=O)[C@H](CC(=O)O)NC(=O)CNC1=O [7/25, cyclo-S-acetyl-dTyr--Arg--Gly--Asp--Cys--Lys--OH] ({CH2CO}-[dY]RGDCK-OH; thioether N-5), which IC50 is on record?
**A.** 370 nM

**Q.** How did the IC50 turn out when “cyclo-S-acetyl-dTyr--Arg--Gly--Asp--Cys--Tyr--Arg--NH2 [7/43]” was run?
**A.** 350 nM

System: New Zealand White rabbits
Assay: Rabbit peripheral blood flow (PBF) by observation of ear vessels
Assay type: in vivo
Parameters: key to PBF: NORMAL: Normal flow is defined as ears that appear pink to red, with no visible constriction of the major blood vessels; Decreased flow applies to ears that have constricted vessels resulting in cold, pallid ears for up to 40 minutes following the start of the inhibitor infusion
Details: rabbit, i.v. bolus 0.5 mg/kg + 0.012 mg/kg infused over 60 minutes; measured visually
Experimental: Catheters are flushed and locked after every sample.
For the experiments summarized in Table 1, PBF was monitored by observation of the condition of the blood vessels in the rabbits' ears, prior to and during the infusion. Normal flow is defined as ears that appear pink to red, with no visible constriction of the major blood vessels. Decreased flow applies to ears that have constricted vessels resulting in cold, pallid ears for up to 40 minutes following the start of the inhibitor infusion.

**Q.** With N=C(N)NCCC[C@H](NC(=O)[C@@H]1C[S+]([O-])CC(=O)N[C@H](Cc2ccc(O)cc2)C(=O)N[C@@H](CCCNC(=N)N)C(=O)NCC(=O)N[C@@H](CC(=O)O)C(=O)N1)C(N)=O (single isomer, unassigned) [drawing 33] as the compound, how does the PBF read?
**A.** NORMAL

Same assay, conditions: rabbit, i.v. bolus 1.5 mg/kg + 0.036 mg/kg infused over 60 minutes; measured visually

**Q.** For NCCCC[C@@H]1NC(=O)[C@@H](Cc2ccc(O)cc2)NC(=O)C(c2ccccc2)SC[C@@H](C(=O)O)NC(=O)[C@H](CC(=O)O)NC(=O)CNC1=O (single isomer, unassigned) [drawing 13], which PBF is on record?
**A.** NORMAL

**Q.** Which PBF does the source give for N=C(N)NCCC[C@@H]1NC(=O)[C@@H](Cc2ccc(O)cc2)NC(=O)CSC[C@@H](C(=O)N[C@@H](CCCCN)C(=O)O)NC(=O)[C@H](CC(=O)O)NC(=O)CNC1=O [drawing 32] ({CH2CO}-[dY]RGDCK-OH; thioether N-5) here?
**A.** NORMAL

**Q.** How did the PBF turn out when N=C(N)NCCC[C@@H]1NC(=O)[C@@H](Cc2ccc(O)cc2)NC(=O)[C@@H](CCCNC(=N)N)SC[C@@H](C(=O)O)NC(=O)[C@H](CC(=O)O)NC(=O)CNC1=O was run?
**A.** NORMAL

**Q.** With N=C(N)NCCC[C@@H]1NC(=O)[C@@H](Cc2ccc(O)cc2)NC(=O)CSC[C@@H](C(=O)N[C@H](CCCN)C(N)=O)NC(=O)[C@H](CC(=O)O)NC(=O)CNC1=O [drawing 18] ({CH2CO}-[dY]RGDC[dOrn]-NH2; thioether N-5) as the compound, how does the PBF read?
**A.** NORMAL

**Q.** CC1(C)SCC(=O)N[C@H](Cc2ccc(O)cc2)C(=O)N[C@@H](CCCCN)C(=O)NCC(=O)N[C@@H](CC(=O)O)C(=O)N[C@@H]1C(=O)O [drawing 9] ({CH2CO}-[dY]KGD[Pen]-OH; thioether N-5) was tested. Which PBF did it give?
**A.** NORMAL

**Q.** For N=C(N)NCCC[C@@H]1NC(=O)[C@@H](Cc2ccc(O)cc2)NC(=O)C(CCCCN)SC[C@@H](C(=O)O)NC(=O)[C@H](CC(=O)O)NC(=O)CNC1=O (single isomer, unassigned) [drawing 23], which PBF is on record?
**A.** NORMAL

**Q.** How did the PBF turn out when N=C(N)NCCC[C@@H]1NC(=O)[C@@H](Cc2ccc(O)cc2)NC(=O)C(CCCCN)SC[C@@H](C(=O)O)NC(=O)[C@H](CC(=O)O)NC(=O)CNC1=O (single isomer, unassigned) [drawing 22] was run?
**A.** NORMAL

**Q.** For N=C(N)NCCC[C@@H]1NC(=O)[C@@H](Cc2ccc(O)cc2)NC(=O)CCC[C@@H](C(=O)N[C@@H](CCCCN)C(N)=O)NC(=O)[C@H](CC(=O)O)NC(=O)CNC1=O [drawing 29] ([dY]RGD[Aad]K-NH2; lactam N-5), which PBF is on record?
**A.** NORMAL

**Q.** With CC1(C)SCC(=O)N[C@H](Cc2ccc(O)cc2)C(=O)N[C@@H](CCCCN)C(=O)NCC(=O)N[C@@H](CC(=O)O)C(=O)N[C@@H]1C(=O)N[C@@H](CCCNC(=N)N)C(N)=O [drawing 26] ({CH2CO}-[dY]KGD[Pen]R-NH2; thioether N-5) as the compound, how does the PBF read?
**A.** NORMAL

**Q.** N=C(N)NCCC[C@H](NC(=O)[C@@H]1CSCC(=O)N[C@H](Cc2ccc(O)cc2)C(=O)N[C@@H](CCCNC(=N)N)C(=O)NCC(=O)N[C@@H](CC(=O)O)C(=O)N1)C(N)=O [drawing 15] ({CH2CO}-[dY]RGDCR-NH2; thioether N-5) was tested. Which PBF did it give?
**A.** NORMAL

**Q.** With N=C(N)NCCC[C@@H]1NC(=O)[C@@H](Cc2ccc(O)cc2)NC(=O)[C@H](CCCNC(=N)N)SC[C@@H](C(=O)O)NC(=O)[C@H](CC(=O)O)NC(=O)CNC1=O as the compound, how does the PBF read?
**A.** NORMAL

**Q.** Which PBF does the source give for N=C(N)NCCC[C@H](NC(=O)[C@@H]1CCCC(=O)N[C@H](Cc2ccc(O)cc2)C(=O)N[C@@H](CCCNC(=N)N)C(=O)NCC(=O)N[C@@H](CC(=O)O)C(=O)N1)C(N)=O [drawing 28] ([dY]RGD[Aad]R-NH2; lactam N-5) here?
**A.** NORMAL

**Q.** With N=C(N)NCCC[C@@H]1NC(=O)[C@@H](Cc2ccc(O)cc2)NC(=O)C[S+]([O-])C[C@@H](C(=O)N[C@@H](CCCN)C(N)=O)NC(=O)[C@H](CC(=O)O)NC(=O)CNC1=O (stereo partly drawn) as the compound, how does the PBF read?
**A.** NORMAL

**Q.** With N=C(N)NCCC[C@H](NC(=O)[C@@H]1C[S+]([O-])CC(=O)N[C@H](Cc2ccc(O)cc2)C(=O)N[C@@H](CCCNC(=N)N)C(=O)NCC(=O)N[C@@H](CC(=O)O)C(=O)N1)C(N)=O (single isomer, unassigned) [drawing 34] as the compound, how does the PBF read?
**A.** NORMAL

Same assay, conditions: rabbit, i.v. bolus .375 mg/kg + 0.009 mg/kg infused over 60 minutes; measured visually

**Q.** For N=C(N)NCCC[C@@H]1NC(=O)[C@@H](Cc2ccc(O)cc2)NC(=O)C[S+]([O-])C[C@@H](C(=O)O)NC(=O)[C@H](CC(=O)O)NC(=O)CNC1=O (stereo partly drawn) ([dY]RGD[Cys(O)(CH2CO)]-OH; lactam N-5), which PBF is on record?
**A.** NORMAL

Reference: patent publication US5493007A, “Platelet aggregation inhibitors having high specificity for GPIIBIIIA” (Genentech, Inc., priority 1994, dated 1996)
